According to patent US11090395B2, “Composition for cross talk between estrogen receptors and cannabinoid receptors” (SeeCure Taiwan Co., Ltd., priority 2018, dated 2021):

Test system: lymphoma cells (mantle cell lines and DLBCL cell lines)
Assay: In vitro anti-cancer cell viability assay in lymphoma cell lines
Type: cell-based
Procedure: Effect of Composition SC-05-L-1 and Composition SC-05-K-1 against lymphoma cells was assessed by using cell viability assays in representative mantle cell lines and diffuse large B-cell lymphoma (DLBCL) cell lines. The cells were treated with increasing concentration of Compound SC-05-L-1 and Compound SC-05-K-1. Representative DLBCL cell lines sensitive or less sensitive to Compound SC-05-L-1 and Compound SC-05-K-1 were compared.

CCN(CC)CCOc1ccc(/C(=C(/CCCOCC(O)CN2CCCNCCNCCCNCC2)c2ccccc2)c2ccccc2)cc1.Cl [SC-05-L-1, (Z)-1-(1,4,8,11-tetraazacyclotetradecan-1-yl)-3-((5-(4-(2-(diethylamino)ethoxy)phenyl)-4,5-diphenylpent-4-en-1-yl)oxy)propan-2-ol hydrochloride salt]
anti-cancer effect against lymphoma cells (increasing concentration (FIG. 7A, 7B)): dose-dependent manner against lymphoma cells
relative toxicity (lymphoma cells, cyclam versus cyclen chelator (FIG. 8A, 8B)): less toxic than Compound SC-05-K-1
